The term Km denotes the substrate concentration at which the rate is half of its maximum. The term kcat/Km denotes the turnover number divided by the Michaelis constant.

One data set addresses T1, Rv2498c (Mycobacterium tuberculosis, UniProt P9WPE1).
T1 construct: gene citE

The subject of data set [1] is CC(=O)SCCNC(=O)CCNC(=O)[C@H](O)C(C)(C)COP(=O)(O)OP(=O)(O)OC[C@H]1O[C@@H](n2cnc3c(N)ncnc32)[C@H](O)[C@@H]1OP(=O)(O)O. The data set can be described thus: purified protein.

T1 sequence (P9WPE1 whole entry): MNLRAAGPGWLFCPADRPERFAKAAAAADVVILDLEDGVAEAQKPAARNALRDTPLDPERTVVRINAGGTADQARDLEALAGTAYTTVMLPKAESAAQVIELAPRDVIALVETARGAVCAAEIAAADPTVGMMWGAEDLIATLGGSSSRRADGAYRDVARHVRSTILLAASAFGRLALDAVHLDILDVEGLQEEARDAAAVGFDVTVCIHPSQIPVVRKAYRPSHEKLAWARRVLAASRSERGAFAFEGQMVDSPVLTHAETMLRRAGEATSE

Take `CC(=O)CC(=O)O` [acetoacetate]: the X-ray crystal structure result on Rv2498c was “complexes with (S)-citramalyl-CoA (PDB ID code 6AQ4) and with acetoacetate:CoA (PDB ID code 6AS5)”.

Regarding `CC(C)(COP(=O)(O)OP(=O)(O)OC[C@H]1O[C@@H](n2cnc3c(N)ncnc32)[C@H](O)[C@@H]1OP(=O)(O)O)[C@@H](O)C(=O)NCCC(=O)NCCS` [CoA], at Rv2498c, the X-ray crystal structure entry was “complexes with (S)-citramalyl-CoA (PDB ID code 6AQ4) and with acetoacetate:CoA (PDB ID code 6AS5)”.

As to “Rv1837c (Mycobacterium tuberculosis H37Rv)”, in data set [1], the Km was found to be 45 ± 9 µM and the kcat/Km amounted to 1.7e+06 M⁻¹ s⁻¹.
